The values that follow are results of earlier work, collected in US20240130371A1, “ENVIRONMENTAL PROTECTION SYSTEMS AND METHODS OF GREENHOUSE GAS CAPTURE VIA CALCIUM HYDROXIDE” (priority 2021, published 2024).

The conditions of this data set: common coronavirus killers.

Structures are written as SMILES.

Take `CC(C)O` [isopropyl alcohol]: the pH result was “around 8”.
